Laboratory results published in patent US20110294766A1, “16 Alpha, 17 Alpha-Acetal Glucocorticosteroidal Derivatives and their Use” (AstraZeneca AB, priority 2008, published 2011).

Molecular target: T1, recombinant human GR (Homo sapiens, UniProt P04150)
T1 construct: purchased Panvera/Invitrogen P2812 (kit P2893)
T1 sequence (P04150 1-777): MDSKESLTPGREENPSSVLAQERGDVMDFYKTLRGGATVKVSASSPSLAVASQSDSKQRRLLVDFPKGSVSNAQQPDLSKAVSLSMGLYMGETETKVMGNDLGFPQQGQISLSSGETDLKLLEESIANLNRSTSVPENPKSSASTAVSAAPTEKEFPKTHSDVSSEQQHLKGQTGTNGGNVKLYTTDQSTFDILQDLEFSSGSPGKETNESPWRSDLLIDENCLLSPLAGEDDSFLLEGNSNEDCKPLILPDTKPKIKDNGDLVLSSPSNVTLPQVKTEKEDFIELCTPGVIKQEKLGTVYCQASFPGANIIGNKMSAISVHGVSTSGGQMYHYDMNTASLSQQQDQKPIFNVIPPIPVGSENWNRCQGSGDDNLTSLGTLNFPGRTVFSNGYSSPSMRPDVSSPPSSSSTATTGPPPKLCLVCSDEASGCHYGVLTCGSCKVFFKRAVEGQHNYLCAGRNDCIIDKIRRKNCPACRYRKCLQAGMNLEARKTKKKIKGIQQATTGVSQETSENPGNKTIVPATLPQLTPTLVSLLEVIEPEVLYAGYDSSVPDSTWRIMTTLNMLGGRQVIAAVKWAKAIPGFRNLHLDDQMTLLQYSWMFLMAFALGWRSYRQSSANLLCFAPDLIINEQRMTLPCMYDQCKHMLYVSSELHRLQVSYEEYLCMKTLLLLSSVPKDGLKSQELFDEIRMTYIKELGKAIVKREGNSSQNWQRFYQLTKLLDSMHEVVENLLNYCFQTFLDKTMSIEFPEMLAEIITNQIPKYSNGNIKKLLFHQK
Test: Human Glucocorticoid Receptor (GR) Assay (fluorescence polarization, Panvera/Invitrogen kit)
Conditions: GS Red tracer, 2 hours at room temperature, 100% control 10 μM Dexamethasone, read-out: Inhibition of GR binding, IC50
In short: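 Fluorescence polarization competition binding of compounds against Fluoromone GS Red tracer on recombinant human GR, in buffer of potassium phosphate, sodium molybdate, EDTA, DMSO with stabilizing peptide and DTT. Incubated 2 h at room temperature in the dark; read at ex 530/em 590 nm. Controls: DMSO (0%), 10 μM dexamethasone (100%).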

| Structure (SMILES) | IC50 |
| --- | --- |
| Cc1ccc(C2O[C@@H]3C[C@H]4[C@@H]5CCC6=CC(=O)C=C[C@]6(C)[C@H]5[C@@H](O)C[C@]4(C)[C@]3(C(=O)SCC#N)O2)c(C)c1 (stereo partly drawn) [Example 36, S-(Cyanomethyl)(4aR,4bS,5S,6aS,6bS,9aR,10aS,10bS)-8-(2,4-dimethylphenyl)-5-hydroxy-4a,6a-dimethyl-2-oxo-2,4a,4b,5,6,6a,9a,10,10a,10,11,12-dodecahydro-6bH-naphtho[2′,1′:4,5]indeno[1,2-d][1,3]dioxole-6b-carbothioate] | 2.7 nM |
| COc1ccc(C2O[C@@H]3C[C@H]4[C@@H]5CCC6=CC(=O)C=C[C@]6(C)[C@H]5[C@@H](O)C[C@]4(C)[C@]3(C(=O)SCC#N)O2)c(F)c1 (stereo partly drawn) [Example 37, S-(Cyanomethyl)(4aR,4bS,5S,6aS,6bS,9aR,10aS,10bS)-8-(2-fluoro-4-methoxyphenyl)-5-hydroxy-4a,6a-dimethyl-2-oxo-2,4a,4b,5,6,6a,9a,10,10a,10b,11,12-dodecahydro-6bH-naphtho[2′,1′:4,5]indeno[1,2-d][1,3]dioxole-6b-carbothioate] | 1.4 nM |
| COc1ccc([C@@H]2O[C@@H]3C[C@H]4[C@@H]5CCC6=CC(=O)C=C[C@]6(C)[C@H]5[C@@H](O)C[C@]4(C)[C@]3(C(=O)SC)O2)c(F)c1 [Example 38 (8R), S-Methyl (4aR,4bS,5S,6aS,6bS,8R,9aR,10aS,10bS)-8-(2-fluoro-4-methoxyphenyl)-5-hydroxy-4a,6a-dimethyl-2-oxo-2,4a,4b,5,6,6a,9a,10,10a,10b,11,12-dodecahydro-6bH-naphtho[2′,1′:4,5]indeno[1,2-d][1,3]dioxole-6b-carbothioate] | 2.2 nM |
| C[C@]12C=CC(=O)C=C1CC[C@@H]1[C@@H]2[C@@H](O)C[C@@]2(C)[C@H]1C[C@H]1OC(c3ccc(C(F)(F)F)cc3)O[C@]12C(=O)SCC#N (stereo partly drawn) [Example 39, S-(Cyanomethyl)(4aR,4bS,5S,6aS,6bS,9aR,10aS,10bS)-5-hydroxy-4a,6a-dimethyl-2-oxo-8-[4-(trifluoromethyl)phenyl]-2,4a,4b,5,6,6a,9a,10,10a,10,11,12-dodecahydro-6bH-naphtho[2′,1′:4,5]indeno[1,2-d][1,3]dioxole-6b-carbothioate] | 2.8 nM |
| C[C@]12C=CC(=O)C=C1CC[C@@H]1[C@@H]2[C@@H](O)C[C@@]2(C)[C@H]1C[C@H]1OC(c3ccc(C(F)(F)F)cc3)O[C@]12C(=O)SCF (stereo partly drawn) [Example 40, S-(Fluoromethyl)(4aR,4bS,5S,6aS,6bS,9aR,10aS,10bS)-5-hydroxy-4a,6a-dimethyl-2-oxo-8-[4-(trifluoromethyl)phenyl]-2,4a,4b,5,6,6a,9a,10,10a,10,11,12-dodecahydro-6bH-naphtho[2′,1′:4,5]indeno[1,2-d][1,3]dioxole-6b-carbothioate] | 1.7 nM |

Results, then the compound that gave them:

| IC50 | Structure (SMILES) |
| --- | --- |
| 2.2 nM | CSC(=O)[C@@]12OC(c3ccc(C(F)(F)F)cc3)O[C@@H]1C[C@H]1[C@@H]3CCC4=CC(=O)C=C[C@]4(C)[C@H]3[C@@H](O)C[C@@]12C (stereo partly drawn) [Example 41, S-Methyl (4aR,4bS,5S,6aS,6bS,9aR,10aS,10bS)-5-hydroxy-4a,6a-dimethyl-2-oxo-8-[4-(trifluoromethyl)phenyl]-2,4a,4b,5,6,6a,9a,10,10a,10b,11,12-dodecahydro-6bH-naphtho[2′,1′:4,5]indeno[1,2-d][1,3]dioxole-6b-carbothioate] |
| 1.5 nM | C[C@]12C=CC(=O)C=C1CC[C@@H]1[C@@H]2[C@@H](O)C[C@@]2(C)[C@H]1C[C@H]1OC(c3ccccc3F)O[C@]12C(=O)SCC#N (stereo partly drawn) [Example 42, S-(Cyanomethyl)(4aR,4bS,5S,6aS,6bS,9aR,10aS,10bS)-8-(2-fluorophenyl)-5-hydroxy-4a,6a-dimethyl-2-oxo-2,4a,4b,5,6,6a,9a,10,10a,10b,11,12-dodecahydro-6bH-naphtho[2′,1′:4,5]indeno[1,2-d][1,3]dioxole-6b-carbothioate] |
| 0.81 nM | C[C@]12C=CC(=O)C=C1CC[C@@H]1[C@@H]2[C@@H](O)C[C@@]2(C)[C@H]1C[C@H]1OC(c3ccccc3F)O[C@]12C(=O)SCF (stereo partly drawn) [Example 43, S-(Fluoromethyl)(4aR,4bS,5S,6aS,6bS,9aR,10aS,10bS)-8-(2-fluorophenyl)-5-hydroxy-4a,6a-dimethyl-2-oxo-2,4a,4b,5,6,6a,9a,10,10a,10,11,12-dodecahydro-6bH-naphtho[2′,1′:4,5]indeno[1,2-d][1,3]dioxole-6b-carbothioate] |
| 0.62 nM | CSC(=O)[C@@]12OC(c3ccccc3F)O[C@@H]1C[C@H]1[C@@H]3CCC4=CC(=O)C=C[C@]4(C)[C@H]3[C@@H](O)C[C@@]12C (stereo partly drawn) [Example 44, S-Methyl (4aR,4bS,5S,6aS,6bS,9aR,10aS,10bS)-8-(2-fluorophenyl)-5-hydroxy-4a,6a-dimethyl-2-oxo-2,4a,4b,5,6,6a,9a,10,10a,10b,11,12-dodecahydro-6bH-naphtho[2′,1′:4,5]indeno[1,2-d][1,3]dioxole-6b-carbothioate] |
